Data taken from paper PMC8359942, “Native Mass Spectrometry for the Study of PROTAC GNE‐987‐Containing Ternary Complexes” (Chemmedchem, 2021).

What was measured:
[1] = target: T1, Brd4 bromodomain 2 (Brd4^B2) (Homo sapiens, UniProt O60885); experiment: native nESI-FT-ICR mass spectrometry, binary binding; also […] ternary complex with VCB (maximum ratio […])
T1 construct: bromodomain 2

[2] = target: T2, Von Hippel‐Lindau (VHL) E3‐Ubiquitin Ligase, as VCB complex (Homo sapiens, UniProt P40337); experiment: native nESI-FT-ICR mass spectrometry, binary binding; also ternary complex with Brd4 B1 or B2
T2 construct: VHL complexed with Elongins B and C (VCB); with Elongin B and Elongin C

[3] = target: T3, Brd4 bromodomain 1 (Brd4^B1) (Homo sapiens, UniProt O60885); experiment: native nESI-FT-ICR mass spectrometry, binary binding; also […] ternary complex with VCB (maximum ratio […] at […])
T3 construct: bromodomain 1 (avi-tagged, partly biotinylated)

T2 sequence (P40337 whole entry): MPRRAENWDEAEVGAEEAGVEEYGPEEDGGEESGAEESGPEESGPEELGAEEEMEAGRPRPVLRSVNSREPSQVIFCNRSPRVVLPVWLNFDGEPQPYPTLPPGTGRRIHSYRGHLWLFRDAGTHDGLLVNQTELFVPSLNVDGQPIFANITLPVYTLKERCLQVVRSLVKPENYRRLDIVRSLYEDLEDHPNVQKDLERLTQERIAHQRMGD
T2 sequence (Q15370 whole entry partner): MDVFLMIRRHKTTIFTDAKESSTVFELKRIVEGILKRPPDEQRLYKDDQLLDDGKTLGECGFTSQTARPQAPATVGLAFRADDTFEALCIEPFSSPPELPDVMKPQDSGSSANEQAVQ
T2 sequence (Q15369 whole entry partner): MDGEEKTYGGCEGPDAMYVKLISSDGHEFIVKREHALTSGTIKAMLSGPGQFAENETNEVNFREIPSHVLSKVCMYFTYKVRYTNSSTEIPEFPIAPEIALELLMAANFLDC

% bound at 5 μM [1]: 45 % bound at 5 μM
% bound at 5 μM [2]: 57 % bound at 5 μM
% bound at 5 μM [3]: 40 % bound at 5 μM
Substance: GNE-987
